This experiment relates to CEM cells HIV-1 protection, formazan growth assay. In words: NCI AIDS Antiviral Assay. To be noted: for IC50: measured here: growth of uninfected CEM cells. Put shortly: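 Human CEM cells, uninfected and HIV-1-infected, exposed to five drug concentrations; growth measured by soluble formazan assay and scored as percent protection from infection, with protecting compounds retested.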

Values joined by “and” are separate entries in the source; they are usually repeats but may differ in a detail not shown here. Equal entries are not always repeated. Active and inactive are the calls of the source.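 How the source made its calls: active means compounds giving half or more protection of infected cells from virus-caused growth loss, again on retest; inactive means the rest.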

By EC50 is commonly meant the concentration that produces a half-maximal response. The IC50 is the point on the concentration scale where inhibition reaches its midpoint. Read a low IC50 as greater potency in that assay. In the case of `NC1=CN2c3ccccc3N(CC(=O)O)C2C=C1` (configuration not stated), the EC50 was > 200 µM and the IC50 was > 200 µM.

Turning to `CC(C)C(=O)OCC1OC(n2c(Br)nc3c(=O)[nH]c(N)nc32)C(OC(=O)C(C)C)C1OC(=O)C(C)C` (configuration not stated), the EC50 was > 200 µM and the IC50 is 91.2 µM.

With `c1nc2c([nH]1)CCNC2c1ccc2c(c1)OCO2` (configuration not stated), the outcome was inactive.

`Cc1oc2c(c1C(=O)c1ccccc1)C(=O)c1ccccc1C2=O`: the EC50 is > 58.9 µM and the half-inhibitory concentration (IC50) was 11.7 µM.

For `Nc1ccc(SCc2ccc(C(=O)O)cc2[N+](=O)[O-])cc1`, the EC50 is > 813 µM and the IC50 stood at 339 µM.

Turning to `COc1cc2c3c(c1)[nH]c(=S)n3C(=O)CS2`, the EC50 is > 28.8 µM and the IC50 was > 28.8 µM.

For `Cc1cc(C)c(-n2c(-c3ccccc3)cs/c2=N\N=C2C=C(C(C)(C)C)C(=O)C(C(C)(C)C)=C2)c(C)c1`, the EC50 was > 14.1 µM and the IC50 is > 14.1 µM.

Take `CN(CC(=O)Nc1ccccc1C(=O)O)c1ccccc1`: the EC50 was > 200 µM and the half-maximal inhibitory concentration (IC50) stood at 69.2 µM.

In the case of `CCCCCCCCC(=O)N(C)C1C2CN3CCC(O2)C13` (configuration not stated), the result was inactive.

With `CC1OC(O[C@H]2/C=C/C=C/C=C/C=C/C=C/C=C/C=C/[C@H](C)[C@@H](O)[C@@H](C)[C@H](C)OC(=O)C[C@H](O)C[C@H](O)CC[C@@H](O)[C@H](O)C[C@H](O)C[C@]3(O)C[C@H](O)[C@@H](C(=O)O)[C@H](C2)O3)C(O)C(N)C1O` (some centres not stated), the EC50 was > 4.9 µM.

As to `Cn1c(=O)c2c(nc(NCC[N+](C)(C)Cc3ccc(Cl)cc3)n2C)n(C)c1=O`, the EC50 was > 295 µM and the IC50 was > 295 µM.

For the molecule `CC(=O)OCC1OC(n2c(-c3ccccc3)c(N=Nc3ccc(Cl)cc3)c(C)c(C#N)c2=S)C(OC(C)=O)C(OC(C)=O)C1OC(C)=O` (configuration not stated), the EC50 was > 200 µM; the IC50 was 24.5 µM and 95.5 µM.

As for `O=C(CN1CCCCC1)c1ccc2c(c1)Cc1cc(C(=O)CN3CCCCC3)ccc1O2`, the EC50 is > 70.8 µM and the IC50 came out at 33.1 µM.

On to `O=C1OC2(O)c3ccccc3C(=O)N2N2CCCCC12` (configuration not stated), for which the EC50 was > 646 µM and the IC50 is > 646 µM.

On to `Oc1cc2ccccc2c2sc(-c3ccccc3)c(-c3ccccc3)[n+]12`, for which the EC50 was > 200 µM and the IC50 came to 17.8 µM.

Consider `CC(C)CCN(CCC(C)C)CC(=O)Nc1ccc(S(=O)(=O)c2ccc(NC(=O)CN(CCC(C)C)CCC(C)C)cc2)cc1`, for which the EC50 was > 100 µM and the 50% inhibitory concentration (IC50) turned out to be 1.62 µM.

With `COc1ccc(-c2c3c([nH]c(=S)c2C#N)CCC3)cc1`, the 50% effective concentration (EC50) was 178 µM and the IC50 was > 200 µM.

As to `CC1NOC(=O)C1N=Nc1ccccc1Cl` (configuration not stated), the EC50 was > 151 µM and the IC50 is 70.8 µM.

Take `CCCc1cc(=O)oc2c3c(cc(OC(C)C)c12)O[C@H](C)[C@@H](C)C3=O`: the EC50 was 77.6 µM and the IC50 amounted to 120 µM.

As to `C[Si](C)(C)/C(Br)=C\CCN1C(=O)CCC1O` (configuration not stated), the result was inactive.

For `CCc1cc2c(cc1C(=O)CCC(=O)O)CC1(C2)Cc2cc(CC)c(C(=O)CCC(=O)O)cc2C1`, the EC50 is > 200 µM and the 50% inhibitory concentration (IC50) stood at 107 µM.

Regarding `C=CCOC1OC(CO[Si](C)(C)C(C)(C)C)C(OCc2ccccc2)C(OCc2ccccc2)C1OCc1ccccc1` (configuration not stated), the outcome was inactive.

For `CCOC(=O)C(C(=O)c1ccccc1-c1ccccc1C(=O)O)=P(c1ccccc1)(c1ccccc1)c1ccccc1`, the EC50 was > 229 µM and the IC50 amounted to 43.7 µM.

In the case of `O=C(NC1C=Nc2ccc(Cl)cc2NC1=O)c1ccc(Cl)cc1` (configuration not stated), the EC50 was > 200 µM and the IC50 was > 200 µM.

Turning to `c1cc2[nH]snc2c2cncc12`, the EC50 is > 200 µM and the IC50 is 11.2 µM.

As to `CC1(C)CNC[C@@](C)(OCc2ccccc2)C(=O)[N-]C(C)(C)CNC[C@@](C)(OCc2ccccc2)C(=O)[N-]1.[Ni+2]`, the EC50 was > 200 µM and the half-inhibitory concentration (IC50) came to 105 µM.

In the case of `O=C(Nc1ccccc1)N1N=C(c2ccccc2)C1c1ccccc1` (configuration not stated), the EC50 was > 200 µM and the IC50 turned out to be 24.5 µM.

Consider `C1CCC2(CC1)O[C@@H]1[C@@H](O2)[C@@H](O[C@H]2O[C@@H]3COC4(CCCCC4)O[C@H]3[C@@H]3OC4(CCCCC4)O[C@@H]23)O[C@@H]2COC3(CCCCC3)O[C@@H]12`, for which the EC50 is > 100 µM and the IC50 was > 100 µM.

Turning to `COC(=O)[C@@](NC(=O)OCc1ccccc1)([C@H](C)O)C(F)(F)F`, the EC50 is > 200 µM and the IC50 is 110 µM.

With `CC(C)=CCC/C(C)=C/CCC(C(=O)COCc1ccccc1)P1(=O)OC(C)(C)CN1C(C)(C)C` (configuration not stated), the EC50 is > 200 µM and the IC50 came out at 61.7 µM.

For `CCC(=N\NC(N)=S)/C(C)=N/O`, the EC50 is > 200 µM and the IC50 is > 200 µM.

`CCC(CC)C(=O)NCC(=O)NO`: the EC50 is > 200 µM and the IC50 is > 200 µM.

As to `NCCCN1CCN(CCCNc2ccc3nnn4c5ccccc5c(=O)c2c34)CC1`, the EC50 was > 100 µM and the IC50 came out at 5.89 µM.

As for `N#Cc1ccccc1OCCOc1ccccc1C#N`, the EC50 was > 200 µM and the IC50 was > 200 µM.

Turning to `CN(C)[C@@H]1C(=O)C(C(=O)NCNCCCC(=O)O)=C(O)[C@@]2(O)C(=O)C3=C(O)c4c(O)cccc4[C@@](C)(O)[C@H]3C[C@@H]12`, the EC50 is > 1.78 µM and the IC50 is > 1.78 µM.

`C/C=C/C(=O)Oc1cccc2cccnc12`: the EC50 was > 251 µM and the IC50 came to 1.51 µM.

Take `Nc1cccc(C(=O)/C=C/c2ccccc2O)c1`: the EC50 is > 282 µM and the concentration for half-maximal inhibition (IC50) stood at 55 µM.

On to `O=C1NC2C3CC(OCc4ccccc4)(OCc4ccccc4)C2OC3O1` (configuration not stated), for which the EC50 is > 97.7 µM and the IC50 is > 97.7 µM.

For the molecule `CN(C)c1ccc2c(c1)C(=O)N(OS(=O)(=O)c1ccc([N+](=O)[O-])cc1)C2=O`, the EC50 was > 47.9 µM and the IC50 is 20.4 µM.

As for `CC(N1CCS(=O)(=O)CC1)P(=O)(O)O` (configuration not stated), the EC50 is > 200 µM and the IC50 was > 200 µM.

On to `N=C1C=C/[N+](=C\C=CCO)C([O-])=N1`, for which the result was active.

In the case of `Nc1ccc(N=Nc2ccc(-c3ccc(O)cc3)cc2)c2ccc(S(=O)(=O)O)cc12`, the EC50 turned out to be 7.94 µM and the IC50 was > 200 µM.

As for `CC1=C(C(=O)N[C@@H](CC(C)C)C(=O)O)N2C(=O)[C@@H](NC(=O)C(N)c3ccccc3)[C@H]2SC1` (some centres not stated), the 50% effective concentration (EC50) is 117 µM and the IC50 was > 200 µM.

Consider `O=C(O)c1ccc(CSc2ccccc2)c([N+](=O)[O-])c1`, for which the EC50 is > 631 µM and the IC50 was 245 µM.

Consider `CC(=O)C(C=NCCN=CC(C(C)=O)C(C)=O)C(C)=O.[Ni]`, for which the EC50 was > 200 µM and the IC50 was > 200 µM.

Regarding `CC(=O)NS(=O)(=O)c1ccc(NCc2cccc3c(=O)c4ccc(Cl)cc4oc23)cc1`, the EC50 was > 200 µM and the IC50 came out at 3.16 µM.

As to `Cc1ccc(N(C(=[As]c2ccccc2)C(C)(C)C)[Si](C)(C)C)cc1` (configuration not stated), the EC50 is > 18.2 µM and the IC50 was > 18.2 µM.

`CC(C)c1cc(C(=O)[O-])c(O)c(C(C)C)c1.CC(C)c1cc(C(=O)[O-])c(O)c(C(C)C)c1.CC(C)c1cc(C(=O)[O-])c(O)c(C(C)C)c1.CC(C)c1cc(C(=O)[O-])c(O)c(C(C)C)c1.CC(C)c1cc(C(=O)[O-])c(O)c(C(C)C)c1.CC(C)c1cc(C(=O)[O-])c(O)c(C(C)C)c1.[Cu+2].[Mn+2].[Mn+2]`: the EC50 was > 21.4 µM and the 50% inhibitory concentration (IC50) turned out to be 10.7 µM.

As to `C(=Nc1ccc(C2=NCCN2)cc1)c1ccc(C=Nc2ccc(C3=NCCN3)cc2)cc1`, the EC50 is > 200 µM and the IC50 was determined as 11.7 µM.

For the molecule `CCOC(=O)C/C(C)=N\NC(=O)c1ccncc1`, the EC50 is > 200 µM and the concentration for half-maximal inhibition (IC50) is > 200 µM.

As for `Cc1ccc(Oc2ccc([N+](=O)[O-])cc2[N+](=O)[O-])c(C)c1`, the outcome was inactive.

Take `O=C(c1cccc(OCc2ccccc2)c1OCc1ccccc1)N1CCSC1=S`: the EC50 is > 200 µM and the IC50 came out at 9.12 µM.

As to `COC1(OC)c2ccccc2C2(O)c3ccccc3C(=O)C12` (configuration not stated), the result was inactive.

For `CC1(C)OC(=O)[C@@](C)([C@H](O)c2ccccc2)O1`, the result was inactive.

Regarding `CN1C(=O)NC(C=O)(CCc2ccccc2)C1=O` (configuration not stated), the outcome was inactive.

As for `CC(C)=CCNc1nc(Cl)nc2nc[nH]c12`, the EC50 was > 200 µM and the IC50 was found to be 57.5 µM.

In the case of `Nc1nc(Cl)c2ncn(C3C=CC(CO)CC3)c2n1` (configuration not stated), the EC50 is > 200 µM and the IC50 is 97.7 µM.

For `O=C(O)C[n+]1ccccc1`, the EC50 was 148 µM and the concentration for half-maximal inhibition (IC50) was > 200 µM.

For `CN(C)C1(C#N)CCC2(CC1)OCCO2`, the outcome was inactive.

As for `O=C1CCC(c2ccccc2)(C2CCN(Cc3ccc(F)cc3)CC2)C(=O)N1` (configuration not stated), the EC50 is > 200 µM and the IC50 was 123 µM.

Turning to `O=C(NCCO)c1cc2c(cn1)[nH]c1ccccc12`, the result was inactive.

As to `O=c1c(CCO)c(C2CC2)n2n1CCCC2`, the EC50 is > 1120 µM and the IC50 is > 200 µM.

On to `Cc1cc(C)c2c(c1)N[S@@](=O)S2`, for which the EC50 was > 13.5 µM and the IC50 is > 13.5 µM.

`COc1cccc(C=O)c1[O-].COc1cccc(C=O)c1[O-].[Ni+2]`: the EC50 was > 50.1 µM and the IC50 was determined as 35.5 µM.

On to `O=c1[nH]c(=O)n(C2CC(O)C(CO)O2)cc1COCC(F)(F)F` (configuration not stated), for which the EC50 was > 251 µM and the IC50 is > 251 µM.

With `Cc1ccc2[nH]c3[nH]c(=O)[nH]c(=O)c3c2c1`, the EC50 was > 200 µM and the IC50 was > 200 µM.

As for `C=CC(C)(C)C12CC3C(=O)N/C(=C\c4cnc[nH]4)C(=O)N3C1Nc1ccccc12` (configuration not stated), the EC50 is > 200 µM and the half-maximal inhibitory concentration (IC50) was determined as 91.2 µM.

As to `C/C=C/[C@@H](C(=O)OC)N1C(=O)c2ccccc2[C@H]1O`, the EC50 is > 200 µM and the half-inhibitory concentration (IC50) is > 200 µM.

Consider `Nc1c[nH][nH]c(=S)c1=S`, for which the EC50 was > 200 µM and the 50% inhibitory concentration (IC50) came to 3.63 µM.

For `COCCOc1cc(C)cc(/C=C(C)/C=C/C2=C(C)CCCC2(C)C)n1`, the result was inactive.

Source of the values: PubChem BioAssay AID179 (DTP/NCI, 2004).
